Data reported in patent US20100184815A1 (priority 2008, published 2010).
pEC50: −log10 of the molar value. One block for each compound: values may come before it.

Columns and labels:
Assay type in all cases: cell-based
Gal-4 hPPARα = target: T1, Gal-4 hPPARα (Homo sapiens, UniProt Q07869); assay: Gal4-hPPARα transient transfection reporter assay in Cos cells; details: luciferase reporter, 24 hours with compound, scale 1-5, read-out: Gal-4 hPPAR α EC50 (scaled number)
T1 construct: Plasmids pGal4-hPPARα, pGal4-hPPARγ, pGal4-hPPARδ and pG5-TK-pGL3 were constructed as previously described by Staels, Bart, et al., Nature 1998 Jun; 25
T1 sequence (Q07869 200-468 limits assumed): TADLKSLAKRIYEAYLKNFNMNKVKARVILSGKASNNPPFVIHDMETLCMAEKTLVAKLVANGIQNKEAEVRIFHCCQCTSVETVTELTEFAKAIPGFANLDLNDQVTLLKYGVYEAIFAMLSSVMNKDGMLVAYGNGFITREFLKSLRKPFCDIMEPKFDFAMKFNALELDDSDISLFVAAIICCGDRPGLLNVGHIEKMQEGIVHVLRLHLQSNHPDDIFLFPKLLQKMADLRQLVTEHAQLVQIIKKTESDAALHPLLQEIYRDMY
Procedure: (§1) Construction of recombinant plasmids. Plasmids pGal4-hPPARα, pGal4-hPPARγ, pGal4-hPPARδ and pG5-TK-pGL3 were constructed as previously described by Staels, Bart, et al., Nature 1998 Jun. 25; 393 (6687): 790-793, by Staels (Institut Pasteur de Lille, FR).
(§2) Transient transfection assays. Cos cells were seeded in 60-mm dishes at a density of 5.5×10^5 cells/dish in Dulbecco's modified Eagle's medium (DMEM) supplemented with 10% fetal calf serum (FCS) and incubated at 37° C. for 24 hours before transfection. Cells were transfected in Opti-MEM (Gibco; Invitrogen, Carlsbad, Calif.) without FCS for 3 hours at 37° C., using polyethylenimine, with reporter and expression plasmids. The plasmid pBluescript (Stratagene, La Jolla, Calif.) was used as carrier DNA to set the final amount of DNA to 5.5 μg/dish. The pCMV-b-galactosidase expression plasmid was cotransfected as a control for transfection efficiency. Transfection was stopped by the addition of DMEM supplemented with 10% FCS, and cells were then incubated at 37° C. After 16 hours, cells were trypsinized and seeded in 96-well plates at the density of 2×10^4 cells/well and incubated for 6 hours in 10% FCS-containing DMEM. Cells were then incubated for 24 hours in DMEM containing 0.2% FCS and increasing concentrations of the compound tested or vehicle (DMSO). At the end of the experiment, cells were washed once with ice-cold PBS, lysed and the luciferase and b-galactosidase assays were performed in a luminometer and spectrophotomer. Transfection efficiencies were normalized with the b-galactosidase activity assay. Half-maximal effective concentration (EC50) was estimated using Prism software (GraphPad). All transfection experiments were performed at least three times.
(§3) In the following tables, proprietary compound EC50 values for hPPAR α, β, δ and γ are shown. The EC50 value is the concentration of a drug that induces a response halfway between the baseline and maximum, and is commonly used as a measure of drug potency. EC50 values are reported on a scale of 1 through 5, wherein the value scale is defined for each receptor as follows: […]

Gal-4 hPPARγ = target: T2, Gal-4 hPPARγ (Homo sapiens, UniProt P37231); assay: Gal4-hPPARγ transient transfection reporter assay in Cos cells; details: luciferase reporter, 24 hours with compound, scale 1-5, read-out: Gal-4 hPPAR γ EC50 (scaled number)
T2 construct: Plasmids pGal4-hPPARα, pGal4-hPPARγ, pGal4-hPPARδ and pG5-TK-pGL3 were constructed as previously described by Staels, Bart, et al., Nature 1998 Jun; 25
T2 sequence (P37231 238-505 limits assumed): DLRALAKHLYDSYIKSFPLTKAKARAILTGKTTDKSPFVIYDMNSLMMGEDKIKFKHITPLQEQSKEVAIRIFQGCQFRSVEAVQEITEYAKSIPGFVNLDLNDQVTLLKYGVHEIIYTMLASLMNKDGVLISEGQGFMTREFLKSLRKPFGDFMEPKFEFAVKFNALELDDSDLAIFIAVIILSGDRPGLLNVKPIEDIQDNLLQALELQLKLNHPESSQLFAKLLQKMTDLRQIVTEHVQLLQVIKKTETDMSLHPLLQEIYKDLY
Procedure: as §1, §2, §3

Gal-4 hPPARβ/δ = target: T3, Gal-4 hPPARβ/δ (Homo sapiens, UniProt Q03181); assay: Gal4-hPPARδ transient transfection reporter assay in Cos cells; details: luciferase reporter, 24 hours with compound, scale 1-5, read-out: Gal-4 hPPAR β/δ EC50 (scaled number)
T3 construct: Plasmids pGal4-hPPARα, pGal4-hPPARγ, pGal4-hPPARδ and pG5-TK-pGL3 were constructed as previously described by Staels, Bart, et al., Nature 1998 Jun; 25
T3 sequence (Q03181 171-441 limits assumed): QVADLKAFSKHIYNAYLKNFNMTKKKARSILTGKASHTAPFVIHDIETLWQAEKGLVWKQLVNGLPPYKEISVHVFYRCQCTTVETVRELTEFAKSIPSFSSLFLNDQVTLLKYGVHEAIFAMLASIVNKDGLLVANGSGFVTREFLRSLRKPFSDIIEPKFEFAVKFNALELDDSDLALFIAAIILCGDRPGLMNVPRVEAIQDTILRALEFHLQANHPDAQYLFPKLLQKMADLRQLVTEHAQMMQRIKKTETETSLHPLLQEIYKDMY
Procedure: as §1, §2, §3

SMILES: CC(C)(Sc1ccc(C(=O)OCc2cn(Cc3ccc(OC(F)(F)F)cc3)nn2)cc1)C(=O)O [Compound 73, 2-methyl-2-(4-(((1-(4-(trifluoromethoxy)benzyl)-1H-1,2,3-triazol-4-yl)methoxy)carbonyl)phenylthio)propanoic acid]
- pEC50 (Gal-4 hPPARα): 6.70 to 7.29
- pEC50 (Gal-4 hPPARγ): < 6.00
- pEC50 (Gal-4 hPPARβ/δ): < 6.00

SMILES: CC(C)(Sc1ccc(C(=O)OCc2cn(Cc3ccc(C(F)(F)F)cc3)nn2)cc1)C(=O)O [Compound 102, 2-methyl-2-(4-(((1-(4-(trifluoromethyl)benzyl)-1H-1,2,3-triazol-4-yl)methoxy)carbonyl)phenylthio)propanoic acid]
- pEC50 (Gal-4 hPPARα): 6.70 to 7.29
- pEC50 (Gal-4 hPPARγ): < 6.00
- pEC50 (Gal-4 hPPARβ/δ): < 6.00

SMILES: CC(C)(Sc1ccc(C(=O)OCc2cn(Cc3ccc(SC(F)(F)F)cc3)nn2)cc1)C(=O)O [Compound 71, 2-methyl-2-(4-(((1-(4-(trifluoromethylthio)benzyl)-1H-1,2,3-triazol-4-yl)methoxy)carbonyl)phenylthio)propanoic acid]
- pEC50 (Gal-4 hPPARα): 6.70 to 7.29
- pEC50 (Gal-4 hPPARγ): < 6.00
- pEC50 (Gal-4 hPPARβ/δ): < 6.00

SMILES: CC(C)(Sc1ccc(C(=O)OCc2cnn(Cc3ccc(-c4ccccc4)cc3)c2)cc1)C(=O)O [Compound 22, 2-(4-(((1-(biphenyl-4-ylmethyl)-1H-pyrazol-4-yl)methoxy)carbonyl)phenylthio)-2-methylpropanoic acid]
- pEC50 (Gal-4 hPPARα): 6.70 to 7.29
- pEC50 (Gal-4 hPPARγ): < 6.00
- pEC50 (Gal-4 hPPARβ/δ): < 6.00

SMILES: C[C@@H](OC(=O)c1ccc(SC(C)(C)C(=O)O)cc1)c1cn(Cc2ccc(OC(F)(F)F)cc2)nn1 [Compound 137, 4-(1-Carboxy-1-methyl-ethylsulfanyl)-benzoic acid (R)-1-[1-(4-trifluoromethoxy-benzyl)-1H-1,2,3-triazol-4-yl]-ethyl ester]
- pEC50 (Gal-4 hPPARα): 6.70 to 7.29
- pEC50 (Gal-4 hPPARγ): < 6.00
- pEC50 (Gal-4 hPPARβ/δ): < 6.00

SMILES: Cc1ccc(-n2cc(COC(=O)c3ccc(OC(C)(C)C(=O)O)cc3)c(-c3ccccc3)n2)cc1 [Compound 17, 2-methyl-2-(4-(((3-phenyl-1-p-tolyl-1H-pyrazol-4-yl)methoxy)carbonyl)phenoxy)propanoic acid]
- pEC50 (Gal-4 hPPARα): 6.70 to 7.29
- pEC50 (Gal-4 hPPARγ): 6.00 to 6.70
- pEC50 (Gal-4 hPPARβ/δ): 7.30 to 9.00

SMILES: CCCn1c(COC(=O)c2ccc(SC(C)(C)C(=O)O)cc2)nn(Cc2cccc(C(F)(F)F)c2)c1=O [Compound 176, 2-methyl-2-(4-(((5-oxo-4-propyl-1-(3-(trifluoromethyl)benzyl)-4,5-dihydro-1H-1,2,4-triazol-3-yl)methoxy)carbonyl)phenylthio)propanoic acid]
- pEC50 (Gal-4 hPPARα): 6.70 to 7.29
- pEC50 (Gal-4 hPPARγ): < 6.00
- pEC50 (Gal-4 hPPARβ/δ): < 6.00

SMILES: CCn1c(COC(=O)c2ccc(SC(C)(C)C(=O)O)cc2)nn(Cc2ccc(C)cc2)c1=O [Compound 193, 2-(4-(((4-ethyl-1-(4-methylbenzyl)-5-oxo-4,5-dihydro-1H-1,2,4-triazol-3-yl)methoxy)carbonyl)phenylthio)-2-methylpropanoic acid]
- pEC50 (Gal-4 hPPARα): 6.70 to 7.29
- pEC50 (Gal-4 hPPARγ): < 6.00
- pEC50 (Gal-4 hPPARβ/δ): < 6.00

More lines, now with the values ahead:

- pEC50 (Gal-4 hPPARα): 7.30 to 9.00
- pEC50 (Gal-4 hPPARγ): < 6.00
- pEC50 (Gal-4 hPPARβ/δ): < 6.00
SMILES: CC(C)(Sc1ccc(C(=O)OCc2cnn(Cc3ccc4c(c3)C(C)(C)CCC4(C)C)c2)cc1)C(=O)O [Compound 29, 2-methyl-2-(4-(((1-((5,5,8,8-tetramethyl-5,6,7,8-tetrahydronaphthalen-2-yl)methyl)-1H-pyrazol-4-yl)methoxy)carbonyl)phenylthio)propanoic acid]

- pEC50 (Gal-4 hPPARα): 7.30 to 9.00
- pEC50 (Gal-4 hPPARγ): < 6.00
- pEC50 (Gal-4 hPPARβ/δ): < 6.00
SMILES: CCn1c(COC(=O)c2ccc(SC(C)(C)C(=O)O)cc2)nn(Cc2ccc(C(F)(F)F)cc2)c1=O [Compound 197, 2-(4-(((4-ethyl-5-oxo-1-(4-(trifluoromethyl)benzyl)-4,5-dihydro-1H-1,2,4-triazol-3-yl)methoxy)carbonyl)phenylthio)-2-methylpropanoic acid]

- pEC50 (Gal-4 hPPARα): 7.30 to 9.00
- pEC50 (Gal-4 hPPARγ): < 6.00
- pEC50 (Gal-4 hPPARβ/δ): < 6.00
SMILES: CCCCCCn1c(COC(=O)c2ccc(SC(C)(C)C(=O)O)cc2)nn(Cc2ccc(C(F)(C(F)(F)F)C(F)(F)F)cc2)c1=O [Compound 203, 2-(4-(((4-hexyl-5-oxo-1-(4-(perfluoropropan-2-yl)benzyl)-4,5-dihydro-1H-1,2,4-triazol-3-yl)methoxy)carbonyl)phenylthio)-2-methylpropanoic acid]

- pEC50 (Gal-4 hPPARα): 7.30 to 9.00
- pEC50 (Gal-4 hPPARγ): < 6.00
- pEC50 (Gal-4 hPPARβ/δ): < 6.00
SMILES: CC(C)(Sc1ccc(C(=O)OCc2cnn(Cc3ccc(OC(F)(F)F)cc3)c2)cc1)C(=O)O [Compound 32, 2-methyl-2-(4-(((1-(4-(trifluoromethoxy)benzyl)-1H-pyrazol-4-yl)methoxy)carbonyl)phenylthio)propanoic acid]

- pEC50 (Gal-4 hPPARα): 7.30 to 9.00
- pEC50 (Gal-4 hPPARγ): < 6.00
- pEC50 (Gal-4 hPPARβ/δ): < 6.00
SMILES: CC(C)(Sc1ccc(C(=O)OCc2cnn(Cc3ccc4ccccc4c3)c2)cc1)C(=O)O [Compound 26, 2-methyl-2-(4-(((1-(naphthalen-2-ylmethyl)-1H-pyrazol-4-yl)methoxy)carbonyl)phenylthio)propanoic acid]

- pEC50 (Gal-4 hPPARα): 7.30 to 9.00
- pEC50 (Gal-4 hPPARγ): < 6.00
- pEC50 (Gal-4 hPPARβ/δ): < 6.00
SMILES: CCCCCCn1c(COC(=O)c2ccc(SC(C)(C)C(=O)O)cc2)nn(Cc2ccc(C(OC)(C(F)(F)F)C(F)(F)F)cc2)c1=O [Compound 201, 2-(4-(((1-(4-(1,1,1,3,3,3-hexafluoro-2-methoxypropan-2-yl)benzyl)-4-hexyl-5-oxo-4,5-dihydro-1H-1,2,4-triazol-3-yl)methoxy)carbonyl)phenylthio)-2-methylpropanoic acid]

- pEC50 (Gal-4 hPPARα): > 9.00
- pEC50 (Gal-4 hPPARγ): 6.70 to 7.29
- pEC50 (Gal-4 hPPARβ/δ): < 6.00
SMILES: CCCCCCCn1c(C(C)OC(=O)c2ccc(SC(C)(C)C(=O)O)cc2)nn(Cc2ccc(C)cc2)c1=O (stereo not drawn) [Compound 264, 4-(1-Carboxy-1-methyl-ethylsulfanyl)-benzoic acid 1-[4-heptyl-1-(4-methyl-benzyl)-5-oxo-4,5-dihydro-1H-1,2,4-triazol-3-yl]-ethyl ester]
